These results are taken from patent US20100144683A1, “METHODS FOR GENERATING MAMMALIAN MODELS OF ATOPIC DISEASES, AND SCREENING FOR THEIR TREATMENT” (ASSOCIATION POUR LA RECHERCHE A L'IGBMC (ARI), priority 2006, published 2010).

In series [1] the test system is ears of CD1 wildtype (WT) mice. Put plainly: AD-like phenotype upon long-term ear topical treatment (appearance, histology, IHC). The class given is in vivo, mouse. An excerpt:
White arrows point to the dermal/epidermal junction. FIGS. 2a and b show the ear appearance at day 17 after ethanol and MC903 treatment, respectively. FIGS. 2c and d show hematoxylin and eosin-stained (HE) ear sections of ethanol- and MC903-treated mice at day 17, respectively. Eosinophil-selective cytoplasmic red staining is pointed by arrows in the inset of (d). FIG. 2 u show hematoxylin and eosin-stained (HE) ear sections of ethanol- and 1α,25(OH)2D3 treated mice every second day, at a dose of 0.25 nmole, at day 18 (D18). FIGS. 2 e to n show the result of IHC performed on ear sections from ethanol- or MC903-treated mice at D17, with antibodies against GR1 (e and f), CD3 (g and h), CD4 (i and j), CD8 (k and l) and CD11c (m and n). Yellow color corresponds to staining of antibodies, whereas blue corresponds to DAPI staining of nuclei. FIGS. 2 o and p show the Toluidin blue (TB)-staining of ear sections. Red arrows point to one of the mast cells with intense blue color in the dermis.

Series [2] in a line: Calcemia and overall health upon topical application. The class given is in vivo. As to conditions: 4 nmoles topically on ears, 4 consecutive days. As for the experimental part: 1α,25-(OH)2D3, or MC903 and ethanol (vehicle) were applied to WT mouse right and left ears, respectively. Two shaved areas (1 cm^2 each) of dorsal skin were also treated with MC903 or ethanol. […]

Series [3] relates to TSLP. As to the kind of experiment: TSLP RNA level (Q-PCR) in skin and organs after topical application of NR agonists. The class given is in vivo, mouse. As to conditions: for TSLP RNA levels in ears at D18: 0.25 nmole per ear every second day, WT mice; for dose dependence of TSLP transcripts: increasing doses (MC903: 0.4, 1 or 4 nmoles per ear).
Series [4] has as its system TSLP. The series is described as above. As to conditions: for increase in TSLP transcripts at D5 / effect on TSLP expression (Q-PCR): 4 nmoles in ethanol topically on whole ears of CD1 WT mice, D1 to D4, Q-PCR on day 5. The class given is in vivo, mouse. As for the experimental part: Four nmoles of ligands dissolved in ethanol were topically applied to whole ears of 6-8-week-old female CD1 wildtype (WT) mice for 4 consecutive days (D1 to D4), and TSLP RNA levels were determined on day 5.
1α,25-(OH)2D3, or MC903 and ethanol (vehicle) were applied to WT mouse right and left ears, respectively. Two shaved areas (1 cm^2 each) of dorsal skin were also treated with MC903 or ethanol.

For series [5], the system named is MC903-induced TSLP expression. Put plainly: RAR antagonist on MC903-induced TSLP RNA in ears. It counts as in vivo, mouse. The conditions noted are these: BMS493 2.5 nmoles with MC903 1.25 nmoles, daily on ears of CD1 WT mice, D3. As for the experimental part: The RAR antagonist BMS493 (2.5 nmoles) with ethanol and with or without MC903 (1.25 nmoles) was daily topically-applied to ears of 6-8-week-old female CD1 (WT) mice. TSLP RNA levels in the ears were measured at D3.

In series [6] the test system is ears of CD1 wildtype (WT) mice. As to the kind of experiment: AD-like phenotype upon long-term ear topical treatment (appearance, histology, IHC). It counts as in vivo, mouse. As to conditions: topical treatment with the RAR agonist alone.

Turning to `C=C1/C(=C\C=C2/CCC[C@]3(C)[C@@H]([C@H](C)CCCC(C)(C)O)CC[C@@H]23)C[C@@H](O)C[C@@H]1O` [1α,25-(OH)2D3, 1,25-Dihydroxyvitamin D3], the ear appearance result in series [1] (MC903 4 nmoles daily or 1α,25(OH)2D3 0.25 nmole every second day, from D5, D17) is “reddening and swelling, that worsened with time”. Moreover, in series [1] (MC903 4 nmoles daily, D17, 1α,25-(OH)2D3 0.25 nmole every other day, D18), the “ear histology (hematoxylin/eosin)” value is “inflammatory infiltrate comprising CD4+ T lymphocytes, dendritic cells, eosinophils and mast cells”. In series [2], the hypercalcemia and survival result was “hypercalcemia and death of the mice”. In addition, the “TSLP RNA levels in ears at D18” value in series [3] is listed as “significantly induced”; in series [3] (listed as 1α,25(OH)2D3), “increased”. Besides, the “increase in TSLP transcripts at D5” value in series [4] is given as > 300 fold.

With `C[C@H](CCCC(C)(C)O)[C@H]1CC[C@H]2[C@@H]3CC=C4C[C@@H](O)CC[C@]4(C)[C@H]3CC[C@]12C` [25-hydroxycholesterol], the “effect on TSLP expression (Q-PCR)” value in series [4] is “no effect”. For `CC1(C)CC=C(C#Cc2ccccc2)c2cc(/C=C/c3ccc(C(=O)O)cc3)ccc21` [BMS493, (E)-4-[2-[5,6-Dihydro-5,5-dimethyl-8-(2-phenylethynyl)naphthalene-2-yl]ethen-1-yl]benzoic Acid], in series [5], the “effect on MC903-induced TSLP expression” value is reported as “down-regulates”. Take `CC1(C)CCC(C)(C)c2cc(C3(c4ccc(C(=O)O)cc4)OCCO3)ccc21` [BMS649]: in series [4], the “effect on TSLP expression (Q-PCR)” value was “no effect”. As for `CC1(C)CCC(C)(C)c2cc(C(O)C(=O)Nc3ccc(C(=O)O)cc3F)ccc21` (centres unmarked) [BMS961, R- and S-3-fluoro-4-[2-hydroxy-2-(5,5,8,8-tetramethyl-5,6,7,8,-tetrahydro-naphthalen-2-yl)-acetulamino]-benzoic acid], the “increase in TSLP transcripts at D5” value in series [4] is 5 fold. In series [4] (topical application on mouse ear skin), the “TSLP transcripts upon application on mouse ear skin” value is “significant increase”. In addition, the “AD-like phenotype upon topical treatment on its own” value in series [6] is reported as “too low to trigger an overt AD-like phenotype”.

Regarding `C=C1/C(=C\C=C2/CCC[C@]3(C)[C@@H]([C@H](C)/C=C/C=C/C(O)(CC)CC)CC[C@@H]23)C[C@@H](O)C[C@@H]1O` [EB1089, 1(S),3(R)-dihydroxy-20(R)-(5′-ethyl-5′-hydroxy-hepta-1′(E),3′(E)-dien-1′-yl)-9,10-secopregna-5(Z),7(E),10(19)-triene], the “dose dependence of TSLP transcripts” value in series [3] was “similarly observed”.

Regarding `CC(C)OC(=O)C(C)(C)Oc1ccc(C(=O)c2ccc(Cl)cc2)cc1` [Fenofibrate], the “effect on TSLP expression (Q-PCR)” value in series [4] was “no effect”. `Cc1cc(SCc2sc(-c3ccc(C(F)(F)F)cc3)nc2C)ccc1OCC(=O)O` [GW501516]: the “effect on TSLP expression (Q-PCR)” value in series [4] is on record as “no effect”. Regarding `C=C1/C(=C\C=C2/CCC[C@]3(C)[C@@H]([C@@H](C)OCCCC(O)(CC)CC)CC[C@@H]23)C[C@@H](O)C[C@@H]1O` [KH1060, 1α,25-(OH),-20-epi-22-oxa-24,26,27-trishomovitamin D], the “dose dependence of TSLP transcripts” value in series [3] is “similarly observed”. Consider `CN(CCOc1ccc(CC2SC(=O)NC2=O)cc1)c1ccccn1` (centres unmarked) [Rosiglitazone], for which the “effect on TSLP expression (Q-PCR)” value in series [4] is given as “no effect”.
